For 17 compounds, Ratio Ki and Ki results are on record in ChEMBL document CHEMBL3045465, “Development of Selective Ligands for Benzodiazepine Receptor Subtypes by Manipulating the Substituents at Positions 3- and 7- of Optically Active BzR Ligands” (Med Chem Res, 2004).

Bounds are passed on as bounds.

The species entered for assay [1] is Homo sapiens. The assay can be described thus: Selectivity ratio of Ki for Homo sapiens (human) recombinant GABAA alpha1beta3gamma2 receptor to Ki for Homo sapiens (human) recombinant GABAA alpha5beta3gamma2 receptor.
In assay [2] the target is GABA A receptor alpha-4/beta-3/gamma-2 (Homo sapiens, UniProt P18507+P28472+P48169). The assay can be described thus: Displacement of [3H]-Ro 15-4513 from Homo sapiens (human) recombinant GABAA alpha4beta3gamma2 receptor expressed in Ltk- cells after 1 hr by liquid scintillation counting. In kind it is cell-based.
GABA A receptor alpha-4/beta-3/gamma-2, sequence (P48169 whole entry, one chain of several): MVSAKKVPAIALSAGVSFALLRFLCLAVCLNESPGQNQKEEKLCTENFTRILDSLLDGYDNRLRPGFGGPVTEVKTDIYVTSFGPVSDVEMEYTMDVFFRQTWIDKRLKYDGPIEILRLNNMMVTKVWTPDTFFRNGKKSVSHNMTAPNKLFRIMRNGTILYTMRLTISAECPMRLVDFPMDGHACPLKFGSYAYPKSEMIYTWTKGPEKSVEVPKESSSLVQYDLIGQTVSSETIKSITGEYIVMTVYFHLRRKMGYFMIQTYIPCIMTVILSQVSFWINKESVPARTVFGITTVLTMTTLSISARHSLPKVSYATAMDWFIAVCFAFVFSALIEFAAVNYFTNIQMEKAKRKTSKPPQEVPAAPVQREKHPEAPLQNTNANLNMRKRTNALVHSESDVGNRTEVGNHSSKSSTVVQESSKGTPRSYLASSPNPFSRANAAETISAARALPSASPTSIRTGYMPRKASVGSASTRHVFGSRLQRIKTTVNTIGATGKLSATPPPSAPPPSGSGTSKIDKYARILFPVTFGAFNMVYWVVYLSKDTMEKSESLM
Assay [3] has as its target T1, GABA-A receptor; alpha-2/beta-3/gamma-2 (Homo sapiens, UniProt P18507+P28472+P47869).
T1 sequence (P18507 whole entry): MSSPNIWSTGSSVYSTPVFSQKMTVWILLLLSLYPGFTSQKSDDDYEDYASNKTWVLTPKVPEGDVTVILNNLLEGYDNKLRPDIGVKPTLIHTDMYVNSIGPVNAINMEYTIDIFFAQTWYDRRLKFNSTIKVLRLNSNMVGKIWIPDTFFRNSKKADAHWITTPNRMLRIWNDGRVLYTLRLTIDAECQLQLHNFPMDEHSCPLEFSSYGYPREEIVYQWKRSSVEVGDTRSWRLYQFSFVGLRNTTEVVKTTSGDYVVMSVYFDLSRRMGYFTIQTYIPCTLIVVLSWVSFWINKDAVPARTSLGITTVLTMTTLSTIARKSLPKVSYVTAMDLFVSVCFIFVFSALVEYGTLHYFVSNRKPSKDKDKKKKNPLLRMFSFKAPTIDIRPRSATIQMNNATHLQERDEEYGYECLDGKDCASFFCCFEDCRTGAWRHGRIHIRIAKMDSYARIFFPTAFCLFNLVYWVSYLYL
T1 sequence (P28472 whole entry): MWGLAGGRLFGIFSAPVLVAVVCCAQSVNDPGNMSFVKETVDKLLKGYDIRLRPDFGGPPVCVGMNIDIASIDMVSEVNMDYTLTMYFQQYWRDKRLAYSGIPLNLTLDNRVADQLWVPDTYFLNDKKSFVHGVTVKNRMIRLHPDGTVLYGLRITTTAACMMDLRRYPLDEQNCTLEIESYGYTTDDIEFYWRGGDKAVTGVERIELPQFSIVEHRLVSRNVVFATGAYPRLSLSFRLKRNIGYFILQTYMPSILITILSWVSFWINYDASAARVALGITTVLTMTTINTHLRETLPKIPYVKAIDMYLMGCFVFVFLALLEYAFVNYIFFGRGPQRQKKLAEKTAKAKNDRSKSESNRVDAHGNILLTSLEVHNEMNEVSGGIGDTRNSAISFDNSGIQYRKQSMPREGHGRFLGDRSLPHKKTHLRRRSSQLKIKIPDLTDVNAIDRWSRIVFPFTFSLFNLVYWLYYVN
T1 sequence (P47869 whole entry): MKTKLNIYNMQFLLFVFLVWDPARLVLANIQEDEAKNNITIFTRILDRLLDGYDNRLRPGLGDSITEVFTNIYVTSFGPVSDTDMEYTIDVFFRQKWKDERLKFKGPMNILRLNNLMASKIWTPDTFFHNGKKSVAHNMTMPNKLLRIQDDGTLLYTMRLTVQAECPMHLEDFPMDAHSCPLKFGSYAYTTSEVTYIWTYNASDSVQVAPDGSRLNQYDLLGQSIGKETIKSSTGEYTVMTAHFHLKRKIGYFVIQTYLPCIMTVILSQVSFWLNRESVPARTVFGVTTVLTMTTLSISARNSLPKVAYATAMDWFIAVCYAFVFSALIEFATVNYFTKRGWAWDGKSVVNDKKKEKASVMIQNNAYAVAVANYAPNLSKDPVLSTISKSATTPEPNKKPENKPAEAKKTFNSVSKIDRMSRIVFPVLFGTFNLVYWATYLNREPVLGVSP
The assay can be described thus: Displacement of [3H]-Ro 15-1788 from Homo sapiens (human) recombinant GABAA alpha2beta3gamma2 receptor expressed in Ltk- cells after 1 hr by liquid scintillation counting. In kind it is cell-based. In general terms: In a radioligand displacement assay an active substance lowers the binding of a labelled ligand.

The target in assay [4] is GABA-A receptor; alpha-6/beta-3/gamma-2 (Homo sapiens, UniProt P18507+P28472+Q16445). The assay can be described thus: Displacement of [3H]-Ro 15-4513 from Homo sapiens (human) recombinant GABAA alpha6beta3gamma2 receptor expressed in Ltk- cells after 1 hr by liquid scintillation counting. In kind it is cell-based.
GABA-A receptor; alpha-6/beta-3/gamma-2, sequence (Q16445 whole entry, one chain of several): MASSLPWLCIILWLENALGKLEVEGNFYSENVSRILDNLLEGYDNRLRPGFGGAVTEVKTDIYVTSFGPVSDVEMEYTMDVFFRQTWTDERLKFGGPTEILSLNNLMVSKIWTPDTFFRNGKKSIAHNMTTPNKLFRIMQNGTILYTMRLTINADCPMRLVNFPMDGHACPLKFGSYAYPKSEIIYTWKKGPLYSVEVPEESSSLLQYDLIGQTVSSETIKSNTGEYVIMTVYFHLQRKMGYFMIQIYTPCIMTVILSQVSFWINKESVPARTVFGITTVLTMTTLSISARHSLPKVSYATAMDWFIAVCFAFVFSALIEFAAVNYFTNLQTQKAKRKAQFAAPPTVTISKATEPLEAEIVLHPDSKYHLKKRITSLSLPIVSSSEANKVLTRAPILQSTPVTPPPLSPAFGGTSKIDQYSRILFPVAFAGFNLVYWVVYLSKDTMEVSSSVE
Assay [5] has as its target T2, GABA-A receptor; alpha-1/beta-3/gamma-2 (Homo sapiens, UniProt P14867+P18507+P28472).
T2 sequence (P14867 whole entry): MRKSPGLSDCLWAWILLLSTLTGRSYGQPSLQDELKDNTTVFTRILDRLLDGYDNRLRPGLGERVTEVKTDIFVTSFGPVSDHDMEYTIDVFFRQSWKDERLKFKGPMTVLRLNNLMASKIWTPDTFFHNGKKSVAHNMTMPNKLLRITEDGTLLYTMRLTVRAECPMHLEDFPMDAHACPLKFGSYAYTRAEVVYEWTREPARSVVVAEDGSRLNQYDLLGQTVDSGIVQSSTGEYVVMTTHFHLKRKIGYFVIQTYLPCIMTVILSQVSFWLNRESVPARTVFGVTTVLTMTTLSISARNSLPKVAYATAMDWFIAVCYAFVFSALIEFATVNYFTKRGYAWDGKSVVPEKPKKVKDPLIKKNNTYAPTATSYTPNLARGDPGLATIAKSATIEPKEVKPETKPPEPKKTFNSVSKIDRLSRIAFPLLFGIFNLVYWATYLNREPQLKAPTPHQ
T2 sequence (P18507 whole entry): T1 sequence (P18507 whole entry)
T2 sequence (P28472 whole entry): T1 sequence (P28472 whole entry)
The assay can be described thus: Displacement of [3H]-Ro 15-1788 from Homo sapiens (human) recombinant GABAA alpha1beta3gamma2 receptor expressed in Ltk- cells after 1 hr by liquid scintillation counting. In kind it is cell-based.

For assay [6], the target named is T3, GABA-A receptor; alpha-3/beta-3/gamma-2 (Homo sapiens, UniProt P18507+P28472+P34903).
T3 sequence (P18507 whole entry): T1 sequence (P18507 whole entry)
T3 sequence (P28472 whole entry): T1 sequence (P28472 whole entry)
T3 sequence (P34903 whole entry): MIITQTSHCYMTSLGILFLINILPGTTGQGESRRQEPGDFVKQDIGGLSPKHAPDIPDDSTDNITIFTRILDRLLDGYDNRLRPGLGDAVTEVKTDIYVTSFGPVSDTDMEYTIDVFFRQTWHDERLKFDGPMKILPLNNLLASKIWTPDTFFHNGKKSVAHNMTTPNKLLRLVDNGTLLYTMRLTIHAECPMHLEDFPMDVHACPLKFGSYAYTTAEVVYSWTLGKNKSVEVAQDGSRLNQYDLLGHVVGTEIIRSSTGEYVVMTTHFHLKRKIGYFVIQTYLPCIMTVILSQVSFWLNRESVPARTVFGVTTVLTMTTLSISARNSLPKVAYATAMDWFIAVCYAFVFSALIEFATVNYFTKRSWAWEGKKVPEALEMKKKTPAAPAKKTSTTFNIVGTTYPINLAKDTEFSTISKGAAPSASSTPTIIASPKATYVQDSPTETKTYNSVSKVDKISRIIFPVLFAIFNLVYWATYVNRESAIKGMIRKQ
The experiment in a line: Displacement of [3H]-Ro 15-1788 from Homo sapiens (human) recombinant GABAA alpha3beta3gamma2 receptor expressed in Ltk- cells after 1 hr by liquid scintillation counting. In kind it is cell-based.

For assay [7], the target named is T4, GABA-A receptor; alpha-5/beta-3/gamma-2 (Homo sapiens, UniProt P18507+P28472+P31644).
T4 sequence (P18507 whole entry): T1 sequence (P18507 whole entry)
T4 sequence (P28472 whole entry): T1 sequence (P28472 whole entry)
T4 sequence (P31644 whole entry): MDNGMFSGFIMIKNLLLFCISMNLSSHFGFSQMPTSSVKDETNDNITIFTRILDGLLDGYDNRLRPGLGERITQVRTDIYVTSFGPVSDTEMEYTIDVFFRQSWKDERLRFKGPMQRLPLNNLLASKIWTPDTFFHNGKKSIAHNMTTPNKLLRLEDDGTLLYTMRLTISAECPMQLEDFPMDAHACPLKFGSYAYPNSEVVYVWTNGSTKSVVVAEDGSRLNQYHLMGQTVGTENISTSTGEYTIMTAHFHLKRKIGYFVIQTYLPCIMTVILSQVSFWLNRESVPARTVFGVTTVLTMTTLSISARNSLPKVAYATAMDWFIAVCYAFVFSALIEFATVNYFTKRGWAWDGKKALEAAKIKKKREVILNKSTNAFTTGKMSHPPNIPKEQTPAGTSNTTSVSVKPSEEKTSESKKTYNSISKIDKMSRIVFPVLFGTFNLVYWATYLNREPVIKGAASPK
The assay can be described thus: Displacement of [3H]-Ro 15-1788 from Homo sapiens (human) recombinant GABAA alpha5beta3gamma2 receptor expressed in Ltk- cells after 1 hr by liquid scintillation counting. In kind it is cell-based.

With `CCOC(=O)c1ncn2c1[C@@H]1CCCN1C(=O)c1cc(C#C[Si](C)(C)C)ccc1-2`, the Ratio Ki in assay [1] amounted to 50.
For orientation: Ki means the equilibrium dissociation constant of an inhibitor or competing ligand from its target. As to `C=Cc1ccc2c(c1)C(=O)N1CCC[C@H]1c1c(C(=O)OCC(F)(F)F)ncn1-2`, the Ki came to 175 nM in assay [2]; 55 nM in assay [3]; 292 nM in assay [4]; 94 nM in assay [5]; 65 nM in assay [6]; 6.9 nM in assay [7]. Besides, the Ratio Ki in assay [1] is 13.6.
As to `C#Cc1ccc2c(c1)C(=O)N1CCC[C@H]1c1c(C(=O)OCC)ncn1-2`, in assay [1], the Ratio Ki stood at 45.
Turning to `C#Cc1ccc2c(c1)C(=O)N1CCC[C@H]1c1c(C(=O)OC(C)(C)C)ncn1-2`, the Ki in assay [2] is 213 nM; in assay [3], over 333 nM; in assay [4], 308 nM; in assay [5], over 333 nM; in assay [6], over 333 nM; in assay [7], 40 nM.
In the case of `CC(C)(C)OC(=O)c1ncn2c1[C@@H]1CCCN1C(=O)c1cc(-c3ccco3)ccc1-2`, the Ki in assay [2] is 11.6 nM; in assay [3], 16.2 nM; in assay [4], 46 nM; in assay [5], 1.8 nM; in assay [6], 15.6 nM; in assay [7] it was 1.7 nM. Besides, the Ratio Ki in assay [1] was found to be 1.1.
Take `CCOC(=O)c1ncn2c1[C@@H]1CCCN1C(=O)c1cc(Br)ccc1-2`: in assay [1], the Ratio Ki is 49.
In the case of `O=C(OCC(F)(F)F)c1ncn2c1[C@@H]1CCCN1C(=O)c1cc(Br)ccc1-2`, the Ki is 291 nM in assay [2]; over 333 nM in assay [3]; over 333 nM in assay [4]; over 333 nM in assay [5]; 245 nM in assay [6]; 57 nM in assay [7].
With `CC(C)(C)OC(=O)c1ncn2c1[C@@H]1CCCN1C(=O)c1cc(-c3ccccc3)ccc1-2`, the Ki in assay [2] was 114 nM; in assay [3], 129 nM; in assay [4], over 333 nM; in assay [5], 28 nM; in assay [6], 59 nM; in assay [7] it was 13 nM. Also, in assay [1], the Ratio Ki is 2.2.
For the compound `O=C(OCC(F)(F)F)c1ncn2c1[C@@H]1CCCN1C(=O)c1cc(-c3ccccc3)ccc1-2`, the Ki in assay [2] is over 333 nM; in assay [3], over 333 nM; in assay [4], over 333 nM; in assay [5], 141 nM; in assay [6] it was over 333 nM; in assay [7] it was over 333 nM.
Take `O=C(OCC(F)(F)F)c1ncn2c1[C@@H]1CCCN1C(=O)c1ccccc1-2`: the Ki in assay [2] is over 333 nM; in assay [3], 34 nM; in assay [4] it was over 333 nM; in assay [5], 34 nM; in assay [6], 13 nM; in assay [7], 4.3 nM. Moreover, the Ratio Ki in assay [1] came to 7.9.
Regarding `CC(C)(C)OC(=O)c1ncn2c1[C@@H]1CCCN1C(=O)c1cc(C#C[Si](C)(C)C)ccc1-2`, the Ki in assay [2] is 175 nM; in assay [3] it was over 333 nM; in assay [4] it was over 333 nM; in assay [5], over 333 nM; in assay [6], over 333 nM; in assay [7] it was 103 nM.
Turning to `CCOC(=O)c1ncn2c1[C@@H]1CCCN1C(=O)c1cc(OC)ccc1-2`, the Ratio Ki in assay [1] amounted to 108.
Consider `C#Cc1ccc2c(c1)C(=O)N1CCC[C@H]1c1c(C(=O)OCC(F)(F)F)ncn1-2`, for which the Ki worked out at 345 nM in assay [2]; 172 nM in assay [3]; 320 nM in assay [4]; 299 nM in assay [5]; 169 nM in assay [6]; 8.3 nM in assay [7]. Further, the Ratio Ki in assay [1] amounted to 36.
Turning to `C[Si](C)(C)C#Cc1ccc2c(c1)C(=O)N1CCC[C@H]1c1c(C(=O)OCC(F)(F)F)ncn1-2`, the Ki was over 333 nM in assay [2]; over 333 nM in assay [3]; over 333 nM in assay [4]; over 333 nM in assay [5]; over 333 nM in assay [6]; 137 nM in assay [7].
Consider `CC(C)(C)OC(=O)c1ncn2c1[C@@H]1CCCN1C(=O)c1cc(Br)ccc1-2`, for which the Ki in assay [2] amounted to 29 nM; in assay [3], 123 nM; in assay [4], 72 nM; in assay [5], 150 nM; in assay [6] it was 49 nM; in assay [7], 4 nM. In addition, the Ratio Ki in assay [1] was 37.5.
As for `O=C(OCC(F)(F)F)c1ncn2c1[C@@H]1CCCN1C(=O)c1cc(-c3ccco3)ccc1-2`, the Ki in assay [2] turned out to be 51 nM; in assay [3], 55 nM; in assay [4] it was 251 nM; in assay [5] it was 7.1 nM; in assay [6], 52 nM; in assay [7] it was 10 nM. Moreover, in assay [1], the Ratio Ki came out at 0.71.
Consider `C=Cc1ccc2c(c1)C(=O)N1CCC[C@H]1c1c(C(=O)OC(C)(C)C)ncn1-2`, for which the Ki in assay [2] is 26 nM; in assay [3], 35 nM; in assay [4] it was 58 nM; in assay [5], 50 nM; in assay [6], 26 nM; in assay [7] it was 2.4 nM. For the same compound, the Ratio Ki in assay [1] was found to be 20.8.
